Laboratory results taken from patent US20050197343A1, “Utilization of heteroarene carboxamide as dopamine-d3 ligands for the treatment of cns diseases” (priority 2002, published 2005).
pKi: −log10 of the molar value. Read-outs that look alike come from different tables or passages of the source.

Experiments:
D3 receptor = D3 receptor (Homo sapiens, UniProt P35462); test: radio ligand binding assay, CHO cell membrane homogenates, [3H]Spiperon, D3; parameters: expressed in transfected cells; host or cells: CHO cells (membrane homogenates); conditions: for D3 selectivity D2long/D3 / D3 selectivity D2short/D3 / D3 selectivity D4.4/D3: ratio of Ki values
Chain of D3 receptor (P35462 whole entry): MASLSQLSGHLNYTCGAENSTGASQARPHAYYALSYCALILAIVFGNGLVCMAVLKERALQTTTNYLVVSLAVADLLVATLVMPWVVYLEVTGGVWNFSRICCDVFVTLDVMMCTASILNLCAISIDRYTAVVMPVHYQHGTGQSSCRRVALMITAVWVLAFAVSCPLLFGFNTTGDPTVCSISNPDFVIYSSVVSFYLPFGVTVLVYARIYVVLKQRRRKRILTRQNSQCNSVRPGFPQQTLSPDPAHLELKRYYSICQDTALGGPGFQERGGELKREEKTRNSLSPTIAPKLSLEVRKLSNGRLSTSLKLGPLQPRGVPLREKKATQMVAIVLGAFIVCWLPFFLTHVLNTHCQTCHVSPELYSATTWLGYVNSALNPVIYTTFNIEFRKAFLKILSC
Method: (§1) The biological activities of the compounds of the invention were determined in radio ligand binding assays.

serotonin receptor 5-HT2 = target: T1, serotonin receptor 5-HT2 (Sus scrofa, UniProt P50129); test: radio ligand binding, pig cortex membrane preparations, [3H]Ketanserin with 10 μM Prazosin; conditions: p5-HT2; simultaneous incubation with 10 μM of Prazosin
T1 construct: cortex membrane preparations of a pig; from tissue; host or cells: pig cortex
T1 sequence (P50129 whole entry): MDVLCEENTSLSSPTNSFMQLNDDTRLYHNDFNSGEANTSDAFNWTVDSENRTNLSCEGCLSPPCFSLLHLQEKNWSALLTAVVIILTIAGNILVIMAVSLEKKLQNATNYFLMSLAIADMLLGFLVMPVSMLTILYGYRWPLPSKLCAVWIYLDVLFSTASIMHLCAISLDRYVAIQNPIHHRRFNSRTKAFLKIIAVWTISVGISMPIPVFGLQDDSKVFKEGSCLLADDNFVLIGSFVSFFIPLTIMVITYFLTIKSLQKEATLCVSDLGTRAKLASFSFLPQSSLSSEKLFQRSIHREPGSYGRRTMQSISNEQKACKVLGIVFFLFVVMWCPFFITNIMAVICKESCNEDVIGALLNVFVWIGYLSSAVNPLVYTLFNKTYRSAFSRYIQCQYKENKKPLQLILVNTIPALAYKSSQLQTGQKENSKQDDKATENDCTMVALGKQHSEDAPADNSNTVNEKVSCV

α1 receptors = test: competitive experiment with the α1 selective radio ligand [3H]Prazosin; conditions: read-out: Ki values α1 (footnote d); pα1; competitive experiment with [3H]Prazosin
[1] = target: T2, serotonin receptor 5-HT1A (Sus scrofa, UniProt A0A4X1UTF5); test: radio ligand binding, pig cortex membrane preparations, [3H]8-OH-DPAT
T2 sequence (A0A4X1UTF5 1-422): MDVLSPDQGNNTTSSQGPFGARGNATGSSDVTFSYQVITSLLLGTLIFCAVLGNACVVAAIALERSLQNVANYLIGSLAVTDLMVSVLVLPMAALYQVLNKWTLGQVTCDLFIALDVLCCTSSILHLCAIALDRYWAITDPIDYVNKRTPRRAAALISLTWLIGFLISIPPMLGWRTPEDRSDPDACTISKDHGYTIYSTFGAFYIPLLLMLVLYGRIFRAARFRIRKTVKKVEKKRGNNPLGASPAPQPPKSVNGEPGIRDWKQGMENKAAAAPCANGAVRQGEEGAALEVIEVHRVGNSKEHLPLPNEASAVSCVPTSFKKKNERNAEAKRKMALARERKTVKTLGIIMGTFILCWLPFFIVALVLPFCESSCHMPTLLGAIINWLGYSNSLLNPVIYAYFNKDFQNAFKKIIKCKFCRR

[2] = target: adrenergic receptor subtype α1; test: radio ligand binding, pig cortex membranes, highly affine binding site on labelling with [3H]Ketanserin; conditions: read-out: Ki values α1 (footnote c); pα1; derived from the highly affine binding site on labelling with [3H]Ketanserin
human D4.4 receptor = target: T3, human D4.4 receptor (Homo sapiens, UniProt P21917); test: radio ligand binding assay, CHO cell membrane homogenates, [3H]Spiperon, D4.4; conditions: for pKi: hD4.4, average of 2-9 experiments in triplicate
T3 construct: expressed in transfected cells; host or cells: CHO cells (membrane homogenates)
T3 sequence (P21917 1-419): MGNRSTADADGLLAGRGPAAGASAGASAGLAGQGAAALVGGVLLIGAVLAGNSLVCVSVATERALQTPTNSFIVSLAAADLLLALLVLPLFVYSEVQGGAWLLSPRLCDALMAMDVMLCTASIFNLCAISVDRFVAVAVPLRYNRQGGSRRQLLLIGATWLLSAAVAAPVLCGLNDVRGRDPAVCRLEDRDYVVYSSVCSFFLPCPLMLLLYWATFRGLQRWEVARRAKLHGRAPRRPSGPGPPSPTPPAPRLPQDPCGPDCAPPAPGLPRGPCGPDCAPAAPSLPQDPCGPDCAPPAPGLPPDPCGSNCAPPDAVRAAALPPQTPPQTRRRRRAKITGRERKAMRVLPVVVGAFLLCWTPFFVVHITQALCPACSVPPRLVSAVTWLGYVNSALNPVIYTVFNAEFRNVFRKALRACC
Method: as §1

human D2long receptor = target: T4, human D2long receptor (Homo sapiens, UniProt P14416); test: radio ligand binding assay, CHO cell membrane homogenates, [3H]Spiperon, D2long; conditions: hD2long; average of 2-9 experiments in triplicate
T4 construct: expressed in transfected cells; host or cells: CHO cells (membrane homogenates)
T4 sequence (P14416 whole entry): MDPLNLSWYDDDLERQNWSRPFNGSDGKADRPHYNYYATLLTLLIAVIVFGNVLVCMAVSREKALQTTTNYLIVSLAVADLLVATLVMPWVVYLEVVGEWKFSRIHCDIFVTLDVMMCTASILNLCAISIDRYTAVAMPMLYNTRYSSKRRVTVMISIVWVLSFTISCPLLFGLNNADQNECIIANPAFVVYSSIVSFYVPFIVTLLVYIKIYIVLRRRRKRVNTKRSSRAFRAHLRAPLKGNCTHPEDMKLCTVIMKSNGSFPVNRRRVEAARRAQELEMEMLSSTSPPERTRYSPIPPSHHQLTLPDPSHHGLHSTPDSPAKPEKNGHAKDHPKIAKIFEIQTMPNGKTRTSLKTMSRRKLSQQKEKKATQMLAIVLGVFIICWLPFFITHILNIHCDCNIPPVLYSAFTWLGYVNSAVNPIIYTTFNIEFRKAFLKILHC
Method: as §1

human D2short receptor = target: T5, human D2short receptor (Homo sapiens, UniProt P14416); test: radio ligand binding assay, CHO cell membrane homogenates, [3H]Spiperon, D2short; conditions: hD2short; average of 2-9 experiments in triplicate
T5 construct: expressed in transfected cells; host or cells: CHO cells (membrane homogenates)
T5 sequence (P14416 1-414 isoform P14416-2): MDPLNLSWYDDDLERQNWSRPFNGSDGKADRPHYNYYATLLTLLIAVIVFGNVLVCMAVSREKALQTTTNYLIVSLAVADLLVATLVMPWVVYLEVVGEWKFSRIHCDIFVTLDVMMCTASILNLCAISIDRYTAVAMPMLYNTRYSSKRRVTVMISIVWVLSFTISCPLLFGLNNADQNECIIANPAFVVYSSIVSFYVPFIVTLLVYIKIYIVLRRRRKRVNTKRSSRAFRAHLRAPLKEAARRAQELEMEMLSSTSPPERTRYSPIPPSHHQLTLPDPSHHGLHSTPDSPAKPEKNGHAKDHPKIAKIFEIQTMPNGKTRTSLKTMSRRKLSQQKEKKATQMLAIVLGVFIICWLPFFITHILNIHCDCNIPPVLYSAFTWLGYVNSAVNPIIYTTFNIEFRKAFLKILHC
Method: as §1

D1 receptor = target: T6, D1 receptor (Sus scrofa, UniProt P50130); test: radio ligand binding assay, D1 receptor, pig striatum membrane homogenates, [3H]SCH 23390; conditions: pD1; average of 2-9 experiments in triplicate
T6 construct: native membrane homogenates obtained from the striatum of a pig; from tissue; host or cells: pig striatum
T6 sequence (P50130 whole entry): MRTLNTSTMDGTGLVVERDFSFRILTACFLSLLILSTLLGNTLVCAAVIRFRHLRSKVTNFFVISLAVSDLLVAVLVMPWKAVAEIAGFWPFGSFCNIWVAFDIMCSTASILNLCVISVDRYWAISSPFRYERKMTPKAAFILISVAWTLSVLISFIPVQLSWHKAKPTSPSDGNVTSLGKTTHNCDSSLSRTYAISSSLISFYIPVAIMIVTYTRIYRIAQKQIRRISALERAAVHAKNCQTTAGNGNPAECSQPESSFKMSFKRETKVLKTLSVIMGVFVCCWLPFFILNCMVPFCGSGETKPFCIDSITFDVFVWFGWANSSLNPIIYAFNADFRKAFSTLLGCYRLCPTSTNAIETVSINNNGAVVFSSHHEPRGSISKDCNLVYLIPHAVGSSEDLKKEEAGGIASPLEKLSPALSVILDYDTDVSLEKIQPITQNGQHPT
Method: as §1

[3] = hD3, average of 2-9 experiments in triplicate, read-out: Ki-values D3
[4] = read-out: Ki values 5-HT1A, p5-HT1A, [3H]8-OH-DPAT, average of 2 to 6 experiments

Row | Compound | pKi (D3 receptor; [3]) | pKi (serotonin receptor 5-HT2) | pKi (α1 receptors) | pKi [1] | pKi [1, 4] | further results
1 | COc1ccccc1N1CCN(CCCCNC(=O)c2cc3ccc(C#N)cc3[nH]2)CC1 [Example 13, N-4-(4-(2-methoxyphenyl)piperazine-1-yl)butyl-6-cyan-2-indolylcarbamide] | 9.24 to 9.64 | 6.66 | 8.37 | 7.33 | – | –
2 | O=C(NCCCCN1CCN(c2cccc(Cl)c2Cl)CC1)c1cc2cc(Br)ccc2s1 [Example 23, N-4-(4-(2,3-dichlorophenyl)piperazine-1-yl)butyl-5-brom-2-benzo[b]thiophenylcarbamide] | – | 4.85 | 6.49 | – | 6.37 | –
3 | COc1ccccc1N1CCN(CCCCNC(=O)c2cc3cc(C#N)ccc3[nH]2)CC1 [Example 11, N-4-(4-(2-methoxyphenyl)piperazine-1-yl)butyl-5-cyan-2-indolylcarbamide] | 9.24 to 9.64 | 6.36 | 8.23 | 7.08 | – | pKi [2]: 7.62
4 | COc1ccccc1N1CCN(CCCCNC(=O)c2cc3ccccc3o2)CC1 [Example 3, N-4-(4-(2-methoxyphenyl)piperazine-1-yl)butyl-2-benzo[b]furanylcarbarnide] | – | – | 8.48 | – | – | pKi [2]: 7.85; pKi (human D4.4 receptor): 7.52
5 | COc1ccccc1N1CCN(CCCCNC(=O)c2cc3cc(C#N)ccc3o2)CC1 [Example 7, N-4-(4-(2-methoxyphenyl)piperazine-1-yl)butyl-5-cyano-2-benzo[b]furanylcarbamide] | 8.38 | 6.41 | 7.96 | 7.43 | – | pKi (human D2long receptor): 6.89; pKi [2]: 8.09; pKi (human D2short receptor): 7.05; pKi (human D4.4 receptor): 7.24
6 | COc1ccccc1N1CCN(CCCCNC(=O)c2cc3cc(C#N)ccc3s2)CC1 [Example 18, N-4-(4-(2-methoxyphenyl)piperazine-1-yl)butyl-5-cyano-2-benzo[b]thiophenylcarbamide] | – | 6.24 | 8.54 | 7.27 | – | –
7 | O=C(NCCCCN1CCN(c2cccc(Cl)c2Cl)CC1)c1cc2ccccc2[nH]1 [Example 10, N-4-(4-(2,3-dichlorophenyl)piperazine-1-yl)butyl-2-indolylcarbamide] | 9.24 to 9.64 | – | 6.66 | 6.21 | – | D3 affinity (in words) (D3 receptor): subnanomolar affinity
8 | N-4-(4-(2-methoxyphenyl)piperazine-1 -yl)butyl-2-ferrocenylcarbamide [Example 16] | – | 6.30 | 7.52 | – | 9.22 | D4 affinity (in words) (human D4.4 receptor): high D4 affinity
9 | COc1ccccc1N1CCN(CCCCNC(=O)c2cc3cc(Br)ccc3[nH]2)CC1 [Example 12, N-4-(4-(2-methoxyphenyl)piperazine-1-yl)butyl-5-bromo-2-indolylcarbamide] | 9.24 to 9.64 | 6.55 | 8.19 | 6.36 | – | –
10 | COc1ccccc1N1CCN(CCCCNC(=O)c2cc3ccccc3[nH]2)CC1 [Example 24, N-4-(4-(2-methoxyphenyl)piperazine-1-yl)butyl-2-indolylcarbamide] | – | 6.38 | 8.14 | 7.49 | – | pKi [2]: 7.96
11 | COc1ccccc1N1CCN(CCCCNC(=O)c2cc3ccccc3[te]2)CC1 [Example 8, N-4-(4-(2-methoxyphenyl)piperazine-1-yl)butyl-2-benzo[b]tellurophenylcarbamide] | – | 6.38 | 8.46 | 7.16 | – | pKi (D3 receptor): 9.14
12 | N#Cc1ccc2[nH]c(C(=O)NCCCCN3CCN(c4cccc(Cl)c4Cl)CC3)cc2c1 [Example 25, N-4-(4-(2,3-dichlorophenyl)piperazine-1-yl)butyl-5-cyano-2-indolylcarbamide] | – | 6.66 | 6.66 | – | 6.72 | –
13 | O=C(NCCCCN1CCN(c2cccc(Cl)c2Cl)CC1)c1cc2cc(Br)ccc2[nH]1 [Example 14, N-4-(4-(2,3-dichlorophenyl)piperazine-1-yl)butyl-5-brom-2-indolylcarbamide] | – | 6.16 | 6.30 | – | 5.80 | –
14 | N-4-(4-(2, 3-dichlorophenyl)piperazine-1 -yl)butyl-2-ferrocenylcarbamide [Example 17] | 9.33 | 6.60 | 7.14 | – | 7.57 | D4 affinity (in words) (human D4.4 receptor): high D4 affinity; pKi (human D4.4 receptor): 9.20
15 | COc1ccccc1N1CCN(CCCCNC(=O)c2cc3cc(Br)ccc3o2)CC1 [Example 5, N-4-(4-(2-methoxyphenyl)piperazine-1-yl)butyl-5-brom-2-benzo[b]furanylcarbamide] | 9.16 | 6.85 | 8.28 | – | 7.17 | pKi (human D2long receptor): 7.02; D3 selectivity D2long/D3 (D3 receptor): 140; D3 selectivity D2short/D3 (D3 receptor): 88; D3 selectivity D4.4/D3 (D3 receptor): 25; pKi (human D2short receptor): 7.21; pKi (human D4.4 receptor): 7.77; pKi (D1 receptor): 6.23
16 | COc1ccccc1N1CCN(CCCCNC(=O)c2cc3cc(Br)ccc3s2)CC1 [Example 22, N-4-(4-(2-methoxyphenyl)piperazine-1-yl)butyl-5-brom-2-benzo[b]thiophenylcarbamide] | – | 6.12 | 8.60 | – | 6.74 | –
17 | N#Cc1ccc2sc(C(=O)NCCCCN3CCN(c4cccc(Cl)c4Cl)CC3)cc2c1 [Example 19, N-4-(4-(2,3-dichlorophenyl)piperazine-1-yl)butyl-5-cyan-2-benzo[b]thiophenylcarbamide] | – | 6.55 | 6.64 | – | 6.72 | –
18 | COc1ccccc1N1CCN(CCCCNC(=O)c2cc3ccc(C#N)cc3s2)CC1 [Example 20, N-4-(4-(2-methoxyphenyl)piperazine-1-yl)butyl-6-cyano-2-benzo[b]thiophenylcarbamide] | 9.24 to 9.64 | 6.18 | 8.08 | 7.15 | – | –
19 | O=C(NCCCCN1CCN(c2cccc(Cl)c2Cl)CC1)c1cc2ccccc2s1 [Example 2, N-4-(4-(2,3-dichlorophenyl)piperazine-1-yl)butyl-2-benzo[b]thiophenylcarbamide] | – | – | 6.43 | – | – | –
20 | O=C(NCCCCN1CCN(c2cccc(Cl)c2Cl)CC1)c1cc2cc(Br)ccc2o1 [Example 6, N-4-(4-(2,3-dichlorophenyl)piperazine-1-yl)butyl-5-bromo-2-benzo[b]furanylcarbarnide] | 8.47 | 6.27 | 5.89 | – | 5.60 | pKi (human D2long receptor): 5.00; D3 affinity (in words) (D3 receptor): subnanomolar affinity; D3 selectivity D2long/D3 (D3 receptor): 2900; D3 selectivity D2short/D3 (D3 receptor): 1400; D3 selectivity D4.4/D3 (D3 receptor): 910; pKi (human D2short receptor): 5.32; pKi (human D4.4 receptor): 5.51; pKi (D1 receptor): 5.68
21 | N#Cc1ccc2cc(C(=O)NCCCCN3CCN(c4cccc(Cl)c4Cl)CC3)[nH]c2c1 [Example 15, N-4-(4-(2,3-dichlorophenyl)piperazine-1-yl)butyl-6-cyano-2-indolylcarbamide] | – | 6.49 | 5.70 | – | 6.41 | –
22 | N#Cc1ccc2cc(C(=O)NCCCCN3CCN(c4cccc(Cl)c4Cl)CC3)sc2c1 [Example 21, N-4-(4-(2,3-dichlorophenyl)piperazine-1-yl)butyl-6-cyano-2-benzo[b]thiophenylcarbamide] | 9.24 to 9.64 | 6.54 | 7.35 | 6.96 | – | –
23 | O=C(NCCCCN1CCN(c2cccc(Cl)c2Cl)CC1)c1cc2ccccc2o1 [Example 4, N-4-(4-(2,3-dichlorophenyl)piperazine-1-yl)butyl-2-benzo[b]furanylcarbamide] | 8.92 | – | 6.80 | – | – | –
